Tests used:
[1] = target: T1, Cathepsin B (E.C. 3.4.22.1, from bovine spleen) (Bos taurus, UniProt P07688); conditions: FI-CF system, FIG. 7; antipain compared with E64
Protocol: The enzymatic assay was performed in a continuous-flow ESI-TOF-MS system where the enzyme cathepsin B and the substrate Z-FR-AMC were subsequently added to the carrier solution of a flow injection system simulating the effluent of an LC column. As a consequence, cathepsin B was continuously incubated with Z-FR-AMC, resulting in a continuous supply of converted substrate. The product was pumped into the mass spectrometer and monitored. Various compounds were injected into the continuous-flow system, incubated with the enzyme in a reaction coil and subsequently pumped into the mass spectrometer. […]
More in detail, samples were analyzed by two different continuous-flow (CF) systems, which both consisted of a homogeneous bioassay coupled to a Micromass (Wythenshawe, UK) Q-Tof micro mass spectrometer. […] The amount of formed product was determined by MS, which was equipped with a Micromass Z-spray electrospray ionization (ESI) source. […]
Carrier solution (20 μL/min) was mixed continuously with cathepsin B solution (10 μL/min) in reaction coil A for 40 sec, and carrier/cathepsin B solution with Z-FR-AMC solution (30 μL/min) in reaction coil B for 45 sec. The resulting flow (40 μL/min) coming out of reaction coil B was pumped into the mass spectrometer, where the amount of formed product was directly monitored by ESI-TOF-MS. […]

[2] = target: T1, Cathepsin B (E.C. 3.4.22.1, from bovine spleen); experiment: LC-continuous-flow (LC-CF) ESI-TOF-MS cathepsin B assay, substrate Z-FR-AMC; conditions: LC-CF system, FIG. 8; mixture injected, E64 40 μM, CA-074 90 μM
Protocol: For the HPLC screening, solutions were prepared as described herein-above and filled in superloops. Used concentrations were 30 nM cathepsin B and 6 μM internal standard 1, and 50 μM Z-FR-AMC and 6 μM internal standard 2, for superloop 1 and superloop 2, respectively. Injected inhibitors: E64 and CA074, which were in mixture injected (E64: 40 μM; CA-074: 90 μM). […] Compounds injected via an autoinjector were separated by the LC-column, using a binary gradient system consisting of carrier solution and methanol. In order to reduce the amount of methanol that was necessary for separation, a makeup solution was added to the column effluent, resulting in a constant methanol concentration of 10%. Decreasing the concentration of methanol was necessary to prevent enzyme degradation. […] In the LC-CF system, both the enzyme solution and the substrate solution were delivered at a flow rate of 50 μL/min, resulting in a total flow rate of 100 μL/min into the mass spectrometer.
The RP-separation was performed by a binary gradient system, using water and methanol. The organic modifier, however, decreases the activity of enzymes. For this reason, a makeup flow was added after the LC-column (see FIG. 5) to reduce the concentration of methanol. […] This flow was used as the carrier solvent that was pumped into the continuous-flow system. […]

- injected concentration giving more or less the same area of negative peaks [1]: 0.50 µM
- negative peak in product mass trace after LC separation [2]: caused by inhibition
Structure (SMILES): CC(C)C[C@H](NC(=O)[C@H]1O[C@@H]1C(=O)O)C(=O)NCCCCN=C(N)N (relative stereo) [E64, trans-epoxysuccinyl-L-leucylamido-(4-guanidino)butane]

Source: patent publication US20050239152A1, “Continuous-flow enzyme assay” (Kiadis B.V., priority 2002, published 2005)
